The record followed here is ChEMBL document CHEMBL1137175, “Nonpeptide alpha V beta 3 antagonists. Part 9: Improved pharmacokinetic profile through the use of an aliphatic, des-amide backbone” (Bioorg Med Chem Lett, 2004).

pIC50: −log10 of the molar value.

Series [1] addresses T1, Integrin alpha-V/beta-3 (Homo sapiens, UniProt P05106+P06756). As to the kind of experiment: Inhibition of binding to alpha v beta 3 receptor. In kind it is protein-complex assay.
Series [2] has as its target T1, Integrin alpha-V/beta-3. Put plainly: Inhibition of alpha v beta 3 receptor binding. The format is protein-complex assay.
A short description of series [3]: Oral bioavailability in dog. The conditions noted are these: in vivo. The format is ADME, organism-based, Canis lupus familiaris.
The nature of series [4]: Partition coefficient (logP). The conditions noted are these: octanol/water. In kind it is physicochemical.
A short description of series [5]: Concentration required for plasma clearance is determined in dogs. The format is ADME, organism-based, Canis lupus familiaris. The conditions noted are these: dog.
Series [6] is described as follows: Half life of compound is determined in dogs. In kind it is ADME, Canis lupus familiaris. The conditions noted are these: dog, in vivo.

T1 sequence (P05106 27-788 limits assumed): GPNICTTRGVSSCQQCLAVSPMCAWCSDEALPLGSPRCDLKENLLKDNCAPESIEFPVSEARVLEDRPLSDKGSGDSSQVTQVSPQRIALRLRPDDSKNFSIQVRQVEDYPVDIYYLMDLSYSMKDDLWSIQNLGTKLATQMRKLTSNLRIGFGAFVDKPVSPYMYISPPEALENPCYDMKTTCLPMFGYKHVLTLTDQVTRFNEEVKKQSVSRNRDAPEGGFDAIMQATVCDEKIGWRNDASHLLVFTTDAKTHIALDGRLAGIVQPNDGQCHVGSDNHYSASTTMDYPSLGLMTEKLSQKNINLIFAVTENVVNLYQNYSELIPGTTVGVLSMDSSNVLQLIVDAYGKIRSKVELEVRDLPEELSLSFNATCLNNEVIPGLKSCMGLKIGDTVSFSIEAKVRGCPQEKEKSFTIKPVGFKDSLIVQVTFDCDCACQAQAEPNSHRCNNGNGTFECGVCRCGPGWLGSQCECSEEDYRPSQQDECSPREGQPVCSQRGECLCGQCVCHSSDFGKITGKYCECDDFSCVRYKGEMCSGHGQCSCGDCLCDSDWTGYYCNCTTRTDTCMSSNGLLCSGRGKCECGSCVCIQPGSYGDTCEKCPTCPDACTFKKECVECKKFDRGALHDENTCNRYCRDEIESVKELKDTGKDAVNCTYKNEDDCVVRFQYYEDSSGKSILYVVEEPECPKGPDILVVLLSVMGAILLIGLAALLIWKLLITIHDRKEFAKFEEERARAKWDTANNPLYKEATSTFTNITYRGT
T1 sequence (P06756 31-889 limits assumed): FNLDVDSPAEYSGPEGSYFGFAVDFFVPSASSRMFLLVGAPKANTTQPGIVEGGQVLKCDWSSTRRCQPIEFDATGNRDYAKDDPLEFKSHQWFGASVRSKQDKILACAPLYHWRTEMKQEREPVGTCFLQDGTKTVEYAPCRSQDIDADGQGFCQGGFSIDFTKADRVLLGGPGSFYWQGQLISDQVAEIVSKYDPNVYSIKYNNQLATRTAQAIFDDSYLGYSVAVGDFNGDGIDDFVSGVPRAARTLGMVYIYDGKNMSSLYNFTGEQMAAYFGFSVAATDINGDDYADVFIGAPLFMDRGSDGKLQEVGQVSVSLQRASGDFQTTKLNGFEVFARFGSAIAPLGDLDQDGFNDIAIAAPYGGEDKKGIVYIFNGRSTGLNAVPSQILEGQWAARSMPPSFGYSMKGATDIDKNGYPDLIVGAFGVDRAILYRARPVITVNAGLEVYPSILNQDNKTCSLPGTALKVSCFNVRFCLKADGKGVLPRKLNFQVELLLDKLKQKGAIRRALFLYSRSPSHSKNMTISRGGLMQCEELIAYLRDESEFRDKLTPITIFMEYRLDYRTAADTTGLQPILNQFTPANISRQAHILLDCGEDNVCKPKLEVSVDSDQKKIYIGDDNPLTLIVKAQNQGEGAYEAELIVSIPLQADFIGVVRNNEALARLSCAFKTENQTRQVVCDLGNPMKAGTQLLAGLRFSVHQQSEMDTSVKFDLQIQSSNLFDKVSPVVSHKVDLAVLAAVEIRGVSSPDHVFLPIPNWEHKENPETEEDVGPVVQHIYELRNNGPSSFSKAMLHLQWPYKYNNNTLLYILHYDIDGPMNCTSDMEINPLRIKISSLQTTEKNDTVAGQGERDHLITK
T1 sequence (P06756 891-1048 limits assumed): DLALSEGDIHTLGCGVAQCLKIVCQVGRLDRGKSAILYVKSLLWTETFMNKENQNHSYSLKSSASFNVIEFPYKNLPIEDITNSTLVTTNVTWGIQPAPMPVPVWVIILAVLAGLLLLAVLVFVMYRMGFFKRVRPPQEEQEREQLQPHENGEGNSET

`O=C(O)[C@H](CCCCCCCc1ccc2c(n1)NCCC2)NS(=O)(=O)C1CCCCC1` gave a pIC50 at Integrin alpha-V/beta-3 [1] of 7.30.

Turning to `O=C(CCCCc1ccc2c(n1)NCCC2)NC[C@H](NS(=O)(=O)c1ccccc1)C(=O)O`, the pIC50 at Integrin alpha-V/beta-3 [2] was 9.52.

At Integrin alpha-V/beta-3 [1], `O=C(O)[C@H](CCCCCCCc1ccc2c(n1)NCCC2)NS(=O)(=O)CC1CCCCC1` had a pIC50 of 7.74.

Regarding `CC1(C)[C@@H]2CC[C@@]1(CS(=O)(=O)N[C@@H](CNC(=O)CCCCc1ccc3c(n1)NCCC3)C(=O)O)C(=O)C2`, at Integrin alpha-V/beta-3 [2], the pIC50 was 10.00.

The compound `O=C(CCCCc1ccc2c(n1)NCCC2)NC[C@H](NC(=O)c1ccccc1)C(=O)O` had a pIC50 on Integrin alpha-V/beta-3 [2] of 7.13.

Turning to `O=C(N[C@@H](CCCCCCCc1ccc2c(n1)NCCC2)C(=O)O)OCc1ccccc1`, the pIC50 at Integrin alpha-V/beta-3 [1] was 8.21.

For the compound `O=C(O)[C@H](CCCCCCCc1ccc2c(n1)NCCC2)NS(=O)(=O)c1ccccc1`, the negative logarithm of the IC50 (pIC50) on Integrin alpha-V/beta-3 [1] was 7.95.

Compound `O=C(N[C@@H](CCCCCCCc1ccc2c(n1)NCCC2)C(=O)O)c1ccccc1` gave a pIC50 at Integrin alpha-V/beta-3 [1] of 7.14.

As for `Cc1ccc(S(=O)(=O)N[C@@H](CNC(=O)CCCCc2ccc3c(n2)NCCC3)C(=O)O)cc1`, the pIC50 at Integrin alpha-V/beta-3 [2] was 9.40.

Compound `O=C(NCc1ccccc1)N[C@@H](CCCCCCCc1ccc2c(n1)NCCC2)C(=O)O` showed a pIC50 at Integrin alpha-V/beta-3 [1] of 8.33.

With `O=C(O)[C@H](CCCCCCCc1ccc2c(n1)NCCC2)NS(=O)(=O)Cc1ccccc1`, at Integrin alpha-V/beta-3 [1], the pIC50 was 7.46.

At Integrin alpha-V/beta-3 [1], `CC1(C)[C@@H]2CC[C@@]1(CS(=O)(=O)N[C@@H](CCCCCCCc1ccc3c(n1)NCCC3)C(=O)O)C(=O)C2` showed a pIC50 of 9.10. Compared with the last compound, the pIC50 is 1.64 log units higher.

The compound `O=C(Cc1ccccc1)N[C@@H](CCCCCCCc1ccc2c(n1)NCCC2)C(=O)O` registered a bioavailability in series [3] of 17%. For the same compound, the pIC50 on Integrin alpha-V/beta-3 [1] was 7.29. Also, the logP in series [4] was determined as 1.13. The compound further came in with a clearance in series [5] of 13 mL/min/kg. In series [6], this compound had a half-life of 19.2 h.

`O=C(CCCCc1ccc2c(n1)NCCC2)NC[C@H](NC(=O)OCc1ccccc1)C(=O)O` showed a negative logarithm of the IC50 (pIC50) at Integrin alpha-V/beta-3 [2] of 8.74.

`CCCCS(=O)(=O)N[C@@H](CNC(=O)CCCCc1ccc2c(n1)NCCC2)C(=O)O` had a pIC50 on Integrin alpha-V/beta-3 [2] of 8.64.

`CCCCS(=O)(=O)N[C@@H](CCCCCCCc1ccc2c(n1)NCCC2)C(=O)O` had a pIC50 on Integrin alpha-V/beta-3 [1] of 7.67.
